Experimental data from patent US4913908A, “Preparation of submicroscopic particles, particles thus obtained and pharmaceutical compositions containing them” (N. V. Sopar S.A., priority 1981, dated 1990).

Key:
[1] = Toxicity: survival/mortality of mice after intravenous administration or injections; assay type: in vivo; conditions: mouse, in vivo; intravenous, three successive doses of 10 mg/kg/day; read-out: mice that do not survive for 15 days
Description: (§1) Several toxicity measurements are carried out with suspensions of particles obtained by this process.

mice = assay: as above; assay type: in vivo; conditions: three injections of 12.5 mg/kg/day; result in words
Description: as §1

COc1cccc2c1C(=O)c1c(O)c3c(c(O)c1C2=O)C[C@@](O)(C(=O)CO)C[C@@H]3O[C@H]1C[C@H](N)[C@H](O)[C@H](C)O1 [doxorubicin]
mortality at 360 h [1]: 27.5% | mice that survive (mice): none of the mice survives
